# Entries after “also recorded” stand apart in the source; their conditions may differ.
# Experiments:
# Test in all cases: Competitive isoTOP-ABPP in situ (fragment-treated cells)
# [1] = test system: cysteines in MDA-MB-231 and Ramos cells; assay type: cell-based, human
# [2] = biological target: T1, cysteines in MDA-MB-231 and Ramos cells (Homo sapiens, UniProt Q8TD19); assay type: cell-based; conditions: 200 μM, insitu
# T1 sequence (Q8TD19 1-979): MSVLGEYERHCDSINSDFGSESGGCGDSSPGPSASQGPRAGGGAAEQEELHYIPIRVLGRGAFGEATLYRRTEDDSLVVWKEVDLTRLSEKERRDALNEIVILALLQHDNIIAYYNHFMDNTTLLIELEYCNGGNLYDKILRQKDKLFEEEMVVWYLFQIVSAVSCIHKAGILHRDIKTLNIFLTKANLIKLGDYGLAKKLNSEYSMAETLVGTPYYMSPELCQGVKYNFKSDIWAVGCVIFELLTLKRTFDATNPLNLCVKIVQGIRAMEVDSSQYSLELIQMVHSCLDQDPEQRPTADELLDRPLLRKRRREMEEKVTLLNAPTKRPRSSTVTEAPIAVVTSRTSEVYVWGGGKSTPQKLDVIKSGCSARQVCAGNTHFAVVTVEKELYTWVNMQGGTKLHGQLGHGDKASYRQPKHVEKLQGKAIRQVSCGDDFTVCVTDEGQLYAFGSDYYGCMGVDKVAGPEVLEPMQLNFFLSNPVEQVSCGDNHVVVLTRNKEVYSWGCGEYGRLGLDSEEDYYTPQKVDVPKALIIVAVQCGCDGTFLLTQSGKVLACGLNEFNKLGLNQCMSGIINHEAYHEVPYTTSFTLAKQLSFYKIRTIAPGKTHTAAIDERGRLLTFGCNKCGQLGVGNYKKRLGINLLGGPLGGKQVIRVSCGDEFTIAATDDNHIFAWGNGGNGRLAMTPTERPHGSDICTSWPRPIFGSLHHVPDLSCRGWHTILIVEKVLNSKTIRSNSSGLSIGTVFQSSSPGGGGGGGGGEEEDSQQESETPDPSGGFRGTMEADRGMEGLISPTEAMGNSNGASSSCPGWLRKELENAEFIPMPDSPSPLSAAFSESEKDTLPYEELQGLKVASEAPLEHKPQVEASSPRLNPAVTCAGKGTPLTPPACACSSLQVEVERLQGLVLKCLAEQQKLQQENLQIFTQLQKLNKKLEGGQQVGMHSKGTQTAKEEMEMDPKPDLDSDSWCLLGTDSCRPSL
# [3] = biological target: cysteines in MDA-MB-231 and Ramos cells (Homo sapiens, UniProt O00541); assay type: cell-based
# cysteines in MDA-MB-231 and Ramos cells (Homo sapiens, UniProt O00541), sequence (O00541 whole entry, looked up): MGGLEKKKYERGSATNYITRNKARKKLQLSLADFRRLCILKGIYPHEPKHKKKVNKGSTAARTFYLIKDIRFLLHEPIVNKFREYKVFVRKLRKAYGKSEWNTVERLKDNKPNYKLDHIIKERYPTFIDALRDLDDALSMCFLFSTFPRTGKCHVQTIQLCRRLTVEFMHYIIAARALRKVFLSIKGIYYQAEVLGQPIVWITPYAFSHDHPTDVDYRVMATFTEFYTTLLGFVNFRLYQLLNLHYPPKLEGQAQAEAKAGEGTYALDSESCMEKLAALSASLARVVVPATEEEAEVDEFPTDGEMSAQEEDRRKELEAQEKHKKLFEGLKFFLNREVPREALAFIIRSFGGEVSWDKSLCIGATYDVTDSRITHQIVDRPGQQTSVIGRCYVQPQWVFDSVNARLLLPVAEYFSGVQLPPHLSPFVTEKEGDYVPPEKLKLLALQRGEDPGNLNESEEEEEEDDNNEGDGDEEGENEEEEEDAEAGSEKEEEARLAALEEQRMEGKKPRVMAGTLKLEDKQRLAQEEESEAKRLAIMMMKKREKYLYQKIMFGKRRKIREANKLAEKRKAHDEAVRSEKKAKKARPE
# [4] = biological target: T2, cysteines in MDA-MB-231 and Ramos cells (Homo sapiens, UniProt Q9UL40); assay type: cell-based; conditions: 200 μM, insitu
# T2 sequence (Q9UL40 1-294): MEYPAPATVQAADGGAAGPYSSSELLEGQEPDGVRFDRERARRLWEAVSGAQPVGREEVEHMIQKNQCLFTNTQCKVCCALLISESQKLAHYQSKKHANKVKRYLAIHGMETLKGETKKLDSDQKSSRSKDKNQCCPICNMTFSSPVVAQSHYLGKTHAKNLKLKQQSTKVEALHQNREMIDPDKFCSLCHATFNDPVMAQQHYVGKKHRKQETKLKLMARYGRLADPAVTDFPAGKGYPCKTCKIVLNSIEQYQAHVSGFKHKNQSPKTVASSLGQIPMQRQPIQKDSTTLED
# [5] = biological target: T3, cysteines in MDA-MB-231 and Ramos cells (Homo sapiens, UniProt Q8N5L8); assay type: cell-based; conditions: 200 μM, insitu, 231
# T3 sequence (Q8N5L8 1-163): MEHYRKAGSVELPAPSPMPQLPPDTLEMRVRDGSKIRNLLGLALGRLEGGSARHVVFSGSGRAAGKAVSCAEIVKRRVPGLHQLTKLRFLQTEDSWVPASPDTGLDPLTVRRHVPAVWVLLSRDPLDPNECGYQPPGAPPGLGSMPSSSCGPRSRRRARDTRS
# [6] = biological target: T4, cysteines in MDA-MB-231 and Ramos cells (Homo sapiens, UniProt Q9HA64); assay type: cell-based
# T4 sequence (Q9HA64 1-309): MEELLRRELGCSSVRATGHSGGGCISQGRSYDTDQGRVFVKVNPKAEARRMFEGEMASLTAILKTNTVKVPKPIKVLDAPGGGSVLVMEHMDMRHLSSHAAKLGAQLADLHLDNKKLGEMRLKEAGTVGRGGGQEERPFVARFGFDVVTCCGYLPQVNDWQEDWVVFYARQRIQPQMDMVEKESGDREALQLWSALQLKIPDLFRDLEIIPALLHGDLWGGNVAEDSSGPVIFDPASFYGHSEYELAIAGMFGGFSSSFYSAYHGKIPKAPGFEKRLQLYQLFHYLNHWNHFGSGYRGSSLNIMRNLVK
# [7] = biological target: T5, cysteines in MDA-MB-231 and Ramos cells (Homo sapiens, UniProt O95833); assay type: cell-based; conditions: 200 μM, insitu, 231
# T5 sequence (O95833 1-236): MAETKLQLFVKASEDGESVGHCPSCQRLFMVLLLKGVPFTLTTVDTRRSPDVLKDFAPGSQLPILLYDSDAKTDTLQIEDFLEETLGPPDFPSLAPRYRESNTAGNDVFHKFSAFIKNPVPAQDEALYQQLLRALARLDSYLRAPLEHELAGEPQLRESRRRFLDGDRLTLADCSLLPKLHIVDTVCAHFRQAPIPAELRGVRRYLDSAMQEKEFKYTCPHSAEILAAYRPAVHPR
# [8] = biological target: cysteines in MDA-MB-231 and Ramos cells (Homo sapiens, UniProt Q8NFF5); assay type: cell-based
# cysteines in MDA-MB-231 and Ramos cells (Homo sapiens, UniProt Q8NFF5), sequence (Q8NFF5 18-587): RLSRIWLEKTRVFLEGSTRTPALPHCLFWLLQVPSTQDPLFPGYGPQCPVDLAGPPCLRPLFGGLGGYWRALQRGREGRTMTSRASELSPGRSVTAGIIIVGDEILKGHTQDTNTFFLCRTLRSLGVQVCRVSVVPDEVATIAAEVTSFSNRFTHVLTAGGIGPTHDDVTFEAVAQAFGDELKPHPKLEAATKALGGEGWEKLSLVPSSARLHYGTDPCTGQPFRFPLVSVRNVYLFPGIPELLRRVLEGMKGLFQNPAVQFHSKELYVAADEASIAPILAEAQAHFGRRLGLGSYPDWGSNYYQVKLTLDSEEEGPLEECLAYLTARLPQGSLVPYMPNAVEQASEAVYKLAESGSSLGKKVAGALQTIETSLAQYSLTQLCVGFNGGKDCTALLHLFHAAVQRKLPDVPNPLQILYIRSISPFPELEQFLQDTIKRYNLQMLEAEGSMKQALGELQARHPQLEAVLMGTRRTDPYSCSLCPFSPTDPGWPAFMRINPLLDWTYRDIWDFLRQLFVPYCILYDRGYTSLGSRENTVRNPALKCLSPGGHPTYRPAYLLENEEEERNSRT
smiles,measurement,setting,value
Cc1ccc(C=C(C#N)C(=O)NCCN2CCOCC2)cc1 [compound 41],isoTOP-ABPP ratio E2QRD5_C183,"[1]; 200 μM, insitu, 231",0.5
same,isoTOP-ABPP ratio Q8TD19_C623,[2]; 231,0.6
same,"isoTOP-ABPP ratio, O00541_C272","[3]; 200 μM, insitu, 231",0.9
O=C(CCl)NC(=O)NC12CC3CC(CC(C3)C1)C2 [compound 12],"isoTOP-ABPP ratio, cysteine Q9UL40_C68",[4]; 231,20.0
O=C(CCl)NCCc1c[nH]c2ccccc12 [compound 13],"isoTOP-ABPP ratio, cysteine Q9UL40_C68",[4]; ramos,20.0
same,"isoTOP-ABPP ratio, cysteine Q8TD19_C623",[2]; ramos,20.0
same,"isoTOP-ABPP ratio, cysteine O00541_C272","[3]; 200 μM, insitu, 231",1.4
same,"isoTOP-ABPP ratio, cysteine Q8N5L8_C131",[5],1.2
O=C(CCl)N1CCC(Cc2ccccc2)CC1 [compound 9],isoTOP-ABPP reactivity Q9HA64_C24 FN3KRP,"[6]; 200 μM, insitu, 231",20.0
COc1ccc(C2CC(c3cccs3)=NN2C(=O)CCl)cc1 (stereo not shown) [compound 4],isoTOP-ABPP reactivity Q9HA64_C24 FN3KRP,[6]; 100 μM in situ 231,20.0
O=C(CCl)NC12CC3CC(CC(C3)C1)C2 [compound 21],"isoTOP-ABPP ratio, cysteine E2QRD5_C183","[1]; 200 μM, insitu, 231",0.8
same,"isoTOP-ABPP ratio, cysteine Q9HA64_C24","[6]; 200 μM, insitu, 231",0.6
same,"isoTOP-ABPP ratio, cysteine O95833_C22",[7],1.0
same,"isoTOP-ABPP ratio, cysteine Q8TD19_C623",[2]; 231,0.8
same,"isoTOP-ABPP ratio, cysteine Q8N5L8_C131",[5],0.8
Cn1cc(S(=O)(=O)N2CCOCC2)cc1C(=O)NC(=O)CCl [compound 11],"isoTOP-ABPP ratio, cysteine E2QRD5_C183",[1]; 100 μM in situ 231,0.9
same,proteomic reactivity in situ (in words),"[1]; in situ, 2 h, versus in vitro",notably devoid of activity in situ; also recorded: notably lower reactivity in situ versus in vitro
same,"isoTOP-ABPP ratio, cysteine O00541_C272",[3]; 100 μM in situ 231,1.0
same,"isoTOP-ABPP ratio, cysteine Q8NFF5_C499",[8]; 100 μM in situ 231,16
C=CC(=O)Nc1cc(F)c(N2CCN(C(=O)OC(C)(C)C)CC2)c(F)c1 [compound 38],isoTOP-ABPP ratio Q9HA64_C24,"[6]; 200 μM, insitu, 231",1.7
CC1CCc2ccccc2N1C(=O)CCl (stereo not shown) [compound 45],isoTOP-ABPP ratio O95833_C22,[7],13.8
same,isoTOP-ABPP ratio Q8N5L8_C131,[5],7.3
COc1ccc2c(c1)CCCN2C(=O)CCl [compound 2],isoTOP-ABPP reactivity Q9HA64_C24 FN3KRP,"[6]; 200 μM, insitu, 231",6.3
same,isoTOP-ABPP reactivity Q8NFF5_C499 FLAD1,"[8]; 200 μM, insitu, 231",6.2
CC(C)CCOCCNC(=O)CCl [compound 27],isoTOP-ABPP ratio Q9UL40_C68,[4]; 231,1.9
O=C(CCl)N1CCN(CC(=O)N2CCOCC2)CC1 [compound 29],isoTOP-ABPP ratio Q9UL40_C68,[4]; ramos,2.4
same,isoTOP-ABPP ratio Q8NFF5_C499,"[8]; 200 μM, insitu, ramos",3.4
C=CC(=O)N(Cc1cccnc1)c1cc(C(F)(F)F)cc(C(F)(F)F)c1 [compound 31],isoTOP-ABPP ratio E2QRD5_C183,"[1]; 200 μM, insitu, 231",0.8
same,isoTOP-ABPP ratio O95833_C22,[7],0.5
same,isoTOP-ABPP ratio Q8TD19_C623,[2]; 231,0.7
same,isoTOP-ABPP ratio Q8TD19_C623,[2]; ramos,1.4

# Source: patent US10670605B2, “Cysteine reactive probes and uses thereof” (The Scripps Research Institute, priority 2015, dated 2020)
